Data: patent US20030187023A1, “Sulfone derivatives, process for their production and use thereof” (priority 2000, published 2003)

The compounds below were run against human FXa (Homo sapiens, UniProt P00742) (assay: Human activated coagulation factor X (FXa) inhibiting effect). Settings: human FXa (0.3 unit/ml), substrate S-2765, 37° C., tris buffer pH 8.3, absorbance at 405 nm.
human FXa, sequence (P00742 235-488 limits assumed): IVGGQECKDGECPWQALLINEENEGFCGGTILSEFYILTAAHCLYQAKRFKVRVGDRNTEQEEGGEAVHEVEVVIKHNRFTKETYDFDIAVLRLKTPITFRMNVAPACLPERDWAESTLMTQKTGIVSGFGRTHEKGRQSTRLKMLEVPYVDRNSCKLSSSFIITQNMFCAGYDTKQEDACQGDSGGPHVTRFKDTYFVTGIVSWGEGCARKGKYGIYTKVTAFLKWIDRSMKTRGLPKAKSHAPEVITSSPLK
human FXa, sequence (P00742 41-179 partner limits assumed): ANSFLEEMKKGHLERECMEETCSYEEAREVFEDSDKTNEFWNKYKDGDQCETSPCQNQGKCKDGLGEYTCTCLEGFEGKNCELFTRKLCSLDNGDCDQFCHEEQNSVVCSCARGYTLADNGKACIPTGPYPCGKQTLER
Type: biochemical
Experimental: (1) Human Activated Coagulation Factor X (FXa) Inhibiting Effect
Method: A cuvette was charged with 225 μl of 0.05 M tris buffer (pH 8.3) containing 0.145 M sodium chloride and 2 mM calcium chloride, 5 μl of a sample (test compound dissolved in dimethyl sulfoxide) and 10 μl of human FXa (0.3 unit/ml), which were reacted at 37° C. for 10 minutes and then combined with 10 μl of a substrate (3 mM, S-2765) and further reacted at 37° C. for 10 minutes. Then the reaction was terminated by adding 25 μl of 50% aqueous acetic acid, and the change in the absorbance at 405 nm was determined using a spectrophotometer to calculate the concentration at which the FXa effect was inhibited by 50% (IC50).
Work on “4-(6-Chloro-2-naphthyl)sulfonyl-N-methyl-N-[1-(4-pyridyl)-4-piperidyl]propanamide [Example 31]” yielded an IC50 of 50 nM.
In the case of `CN(CCCS(=O)(=O)c1ccc2cc(Cl)ccc2c1)C(=O)C1CCN(c2ccncc2)CC1` [Example 5, N-[3-(6-Chloro-2-naphthyl)sulfonylpropyl]-N-methyl-1-(4-pyridyl)-4-piperidinecarboxamide], the IC50 is reported as 95 nM.
`CC(=O)N(C)CCN(C(=O)CCS(=O)(=O)c1ccc2cc(Cl)ccc2c1)C1CCN(c2ccnc(C)c2)CC1` [Example 75, N-[2-(N-Acetyl-N-methylamino)ethyl]-3-(6-chloro-2-naphthyl)sulfonyl-N-[1-(2-methyl-4-pyridyl)-4-piperidyl]propanamide] gave an IC50 of 59 nM.
Compound `COC(=O)CN(CCCS(=O)(=O)c1ccc2cc(Cl)ccc2c1)C(=O)C1CCN(c2ccncc2)CC1` [Example 14, Methyl 2-[N-[3-(6-chloro-2-naphthyl)sulfonylpropyl]-N-[[1-(4-pyridyl)-4-piperidinyl]carbonyl]amino]acetate] has an IC50 of 60 nM.
`CS(=O)(=O)NCCN(C(=O)CCS(=O)(=O)c1ccc2cc(Cl)ccc2c1)C1CCN(c2ccncc2)CC1` [Example 55, 3-(6-Chloro-2-naphthyl)sulfonyl-N-(2-methylsulfonylaminoethyl)-N-[1-(4-pyridyl)-4-piperidyl]propanamide] gave an IC50 of 40 nM.
Compound `Cc1cc(N2CCC(N(Cc3ccccn3)C(=O)CCS(=O)(=O)c3ccc4cc(Cl)ccc4c3)CC2)ccn1` [Example 129, 3-(6-Chloro-2-naphthyl)sulfonyl-N-[1-(2-methyl-4-pyridyl)-4-piperidyl]-N-(2-pyridyl)methylpropanamide] has an IC50 of 66 nM.
For “N-(2-Aminoethyl)-3-(6-chloro-2-naphthyl)sulfonyl-N-[1-(2-methyl-4-pyridyl)-4-piperidyl]propanamide ditrifluoroacetate [Example 53]”, the IC50 was 95 nM.
“4-(6-Bromo-2-naphthyl)sulfonyl-N-methyl-N-[1-(2-methyl-4-pyridyl)-4-piperidyl]propanamide [Example 64]” was tested, and the IC50 was 36 nM.
In the case of “4-(6-Chloro-2-naphthyl)sulfonyl-N-methyl-N-[1-(2-methyl-4-pyridyl)-4-piperidinyl]propanamide [Example 42]”, the IC50 is reported as 61 nM.
`Cc1cc(N2CCC(N(CCC(=O)N3CC[S+]([O-])CC3)C(=O)CCS(=O)(=O)c3ccc4cc(Cl)ccc4c3)CC2)ccn1` [Example 68, 3-(6-Chloro-2-naphthyl)sulfonyl-N-[1-(2-methyl-4-pydiryl)-4-piperidyl]-N-[3-oxy-3-(1-oxothiomorpholin-4-yl)propyl]propionamide] showed an IC50 of 34 nM.
`CCOC(=O)CN(C(=O)CCS(=O)(=O)c1ccc2cc(Cl)ccc2c1)C1CCN(c2ccncc2)CC1` [Example 33, Ethyl 2-[N-[3-(6-chloro-2-naphthyl)sulfonylpropioyl]-N-[1-(4-pyridyl)-4-piperidyl]amino]acetate] was tested, and the IC50 was 55 nM.
`CC(=O)NCCN(C(=O)CCS(=O)(=O)c1ccc2cc(Cl)ccc2c1)C1CCN(c2ccnc(C)c2)CC1` [Example 52, N-(2-Acetylaminoethyl)-3-(6-chloro-2-naphthyl)sulfonyl-N-[1-(2-methyl-4-pyridyl)-4-piperidyl]propanamide] gave an IC50 of 49 nM.
With `Cc1cc(N2CCC(N(C)C(=O)CCS(=O)(=O)c3ccc4cc(Cl)ccc4c3)CC2)cc(C)n1` [Example 118, 3-(6-Chloro-2-naphthyl)sulfonyl-N-[1-(2,6-dimethyl-4-pyridyl)-4-piperidyl]-N-propanamide] the IC50 was 63 nM.
`CCOC(=O)CCN(C(=O)CCS(=O)(=O)c1ccc2cc(Cl)ccc2c1)C1CCN(c2ccnc(C)c2)CC1` [Example 67, Ethyl 3-[N-[3-(6-chloro-2-naphthyl)sulfonylpropanoyl]-N-[1-(2-methyl-4-pyridyl)-4-piperidyl]amino]propionate] was tested, and the IC50 was 25 nM.
Compound `CC(=O)NCCN(C(=O)CCS(=O)(=O)c1ccc2cc(Cl)ccc2c1)C1CCN(c2ccncc2)CC1` [Example 54, N-(2-Acetylaminoethyl)-3-(6-chloro-2-naphthyl)sulfonyl-N-[1-(4-pyridyl)-4-piperidyl]propanamide] has an IC50 of 39 nM.
Compound `CCOC(=O)CCN(C(=O)CCS(=O)(=O)c1ccc2cc(Cl)ccc2c1)C1CCN(c2ccncc2)CC1` [Example 34, Ethyl 3-[N-[3-(6-chloro-2-naphthyl)sulfonylpropioyl]-N-[1-(4-pyridyl)-4-piperidyl]amino]propionate] has an IC50 of 37 nM.
